Experimental data from patent US20260227407A1, “SYNTHETIC GLYCOPEPTIDES AND DERIVATIVES FOR THE EARLY-STAGE DETECTION OF CANCER BIOMARKERS IN MUC1-POSITIVE TUMORS” (FUNDACIÓN RIOJA SALUD, priority 2023, published 2026).

Key:
[1] = molecular target: 5E5 (anti-MUC1) antibody; experiment: Antigen-antibody binding studies by surface plasmon resonance (SPR); parameters: species or system mouse; conditions: for Kd: SPR, 5E5 immobilised on CM5 chip, 20° C. and 7.5 pH
Experimental: Surface plasmon resonance (SPR) experiments were performed with a Biacore X-100 apparatus (Biacore, GE) in HBS-EP buffer solution at 7.5 pH (10 mM Hepes, 150 mM NaCl, 3 mM EDTA, with 2% DMSO and 0.05% Tween X100) at […]. This is the running buffer. The 5E5 antibody (from Abcam) was immobilised on a CM5 sensor chip (Biacore, GE) following the standard amine coupling method.^30 Briefly, the carboxymethyl dextran surface of flow cell 2 was activated by a 7 min injection of a 1:1 ratio of a 0.4 M aqueous solution of 1-ethyl-3-(3-dimethylaminopropyl) carbodiimide (EDC) and 0.1 M sulfo-N-hydroxysuccinimide. As such, the antibody was bound to the surface using various dilutions in 10 mM sodium acetate, 4.0. pH during a 7 min injection. […] The flow cell 1 was used as a reference and treated as the flow cell 2 (amine coupling method) without protein. Before use, 50 mM stock solutions of peptide ligand were diluted to the final concentration in the running buffer. Therefore, a series of different compounds were injected into the sensor chip at a flow rate of 30 μl/min for a period of 1 min followed by a dissociation period of 1 min. No regeneration was required. FIGS. 2A and 2B show the response-concentration curves obtained for the binding of glycopeptide 21 and 24, respectively, towards the 5E5 (anti-MUC1) antibody at 20° C. in SPR experiments.
The sensogram data were obtained in duplicate and processed with the Biae Evaluation X100 software (Biacore, GE). Experimental data from the affinity measurements were fitted to a specific two-site binding model using Prism software.

[2] = molecular target: Glycopeptide 24 (…(GalNCOEt)APPA); experiment: SPR (Biacore X-100), 5E5 immobilised on CM5 chip, glycopeptide as analyte, steady-state fit
[3] = molecular target: Glycopeptide 21 (…(GalNAc)APPA); experiment: as above
[4] = molecular target: Glycopeptide 24 (…(GalNCOEt)APPA); experiment: SPR, ratio of the KD values of glycopeptides 21 and 24 for 5E5

Kd [1]	affinity relative to the natural glycopeptide (21) ([1]; anti-MUC1 antibody 5E5, SPR)	Kd [2]	Kd [3]	fold higher affinity than the natural peptide (21) [4]	Substance
540 nM	–	–	–	–	GGGGPAPGST(GalNAc)APPA [Glycopeptide 21, reference compound]
83 nM	6.5 times	–	–	–	GGGGPAPGST(GalNCOEt)APPA [Glycopeptide 24]
–	–	83 nM	540 nM	6.5 times	mouse monoclonal anti-MUC1 5E5 antibody
